From ChEMBL document CHEMBL1151469, “Cytotoxic activity of N-chlorotaurine on Acanthamoeba spp” (Antimicrob Agents Chemother, 2008)
The source made the active and inactive calls. The rule behind the calls is not given here.

How the values were obtained:
[1] = test system: Acanthamoeba polyphaga; assay: Amoebicidal activity against Trophozoites of Acanthamoeba polyphaga 5SU assessed as rounding of cells at 55 mM in phosphate buffered saline at pH 7 after 15 mins by hemocytometer using trypan blue stain in presence of 190 mM ammonium chloride; type: functional, organism-based
[2] = test system: Acanthamoeba polyphaga; assay: Amoebicidal activity against Trophozoites of Acanthamoeba polyphaga 5SU assessed as reduction killing time at 55 mM in phosphate buffered saline at pH 7 by hemocytometer using trypan blue stain in presence of 190 mM ammonium chloride; type: functional, organism-based
[3] = test system: Acanthamoeba polyphaga; assay: Amoebicidal activity against Trophozoites of Acanthamoeba polyphaga 5SU assessed as killing time at 0.16 M in peptone yeast extract glucose medium at pH 7 by hemocytometer using trypan blue stain; type: functional
[4] = test system: Acanthamoeba polyphaga; assay: Amoebicidal activity against Trophozoites of Acanthamoeba polyphaga 5SU assessed as log reduction in cell count at 10 mM in phosphate buffered saline at pH 5 after 1 hr by hemocytometer using trypan blue stain in presence of 34 mM ammonium chloride; type: functional, organism-based
[5] = test system: Acanthamoeba hatchetti; assay: Amoebicidal activity against Trophozoites of Acanthamoeba hatchetti 11DS assessed as killing time at 10 mM in phosphate buffered saline at pH 5 by hemocytometer using trypan blue stain in presence of 290 mM ammonium chloride; type: functional
[6] = test system: Acanthamoeba hatchetti; assay: Amoebicidal activity against Trophozoites of Acanthamoeba hatchetti 11DS assessed as killing time at 55 mM in phosphate buffered saline at pH 7 by hemocytometer using trypan blue stain; type: functional
[7] = test system: Acanthamoeba castellanii; assay: Amoebicidal activity against Trophozoites of Acanthamoeba castellanii 40AB assessed as killing time at 20 mM in peptone yeast extract glucose medium at pH 7 by hemocytometer using trypan blue stain; type: functional
[8] = test system: Acanthamoeba hatchetti; assay: Amoebicidal activity against Trophozoites of Acanthamoeba hatchetti 11DS assessed as complete killing time at 55 mM in phosphate buffered saline at pH 7 after 3 hrs by hemocytometer using trypan blue stain in presence of 190 mM ammonium chloride; type: functional, organism-based
[9] = test system: Acanthamoeba hatchetti; assay: Amoebicidal activity against Trophozoites of Acanthamoeba hatchetti 11DS assessed as reduction in cell count at 10 mM in phosphate buffered saline at pH 7 within 1 hr by hemocytometer using trypan blue stain in presence of 290 mM ammonium chloride; type: functional, organism-based
[10] = test system: Acanthamoeba castellanii; assay: Amoebicidal activity against Trophozoites of Acanthamoeba castellanii 4CL assessed as log reduction in cell count at 10 mM in phosphate buffered saline at pH 7 after 6 hrs by hemocytometer using trypan blue stain; type: functional
[11] = test system: Acanthamoeba hatchetti; assay: Amoebicidal activity against Trophozoites of Acanthamoeba hatchetti 11DS assessed as killing time at 10 mM in phosphate buffered saline at pH 7 by hemocytometer using trypan blue stain; type: functional
[12] = test system: Acanthamoeba polyphaga; assay: Amoebicidal activity against Trophozoites of Acanthamoeba polyphaga 5SU assessed as killing time at 10 mM in phosphate buffered saline at pH 7 by hemocytometer using trypan blue stain; type: functional
[13] = test system: Acanthamoeba hatchetti; assay: Amoebicidal activity against Trophozoites of Acanthamoeba hatchetti 11DS assessed as log reduction in cell count at 20 mM in peptone yeast extract glucose medium at pH 7 after 24 hrs by hemocytometer using trypan blue stain; type: functional
[14] = test system: Acanthamoeba castellanii; assay: Amoebicidal activity against Trophozoites of Acanthamoeba castellanii 4CL assessed as log reduction in cell count at 20 mM in peptone yeast extract glucose medium at pH 7 after 24 hrs by hemocytometer using trypan blue stain; type: functional
[15] = test system: Acanthamoeba castellanii; assay: Amoebicidal activity against Trophozoites of Acanthamoeba castellanii 40AB assessed as log reduction in cell count at 20 mM in peptone yeast extract glucose medium at pH 7 after 24 hrs by hemocytometer using trypan blue stain; type: functional
[16] = test system: Acanthamoeba hatchetti; assay: Amoebicidal activity against Trophozoites of Acanthamoeba hatchetti 11DS assessed as killing time at 20 mM in peptone yeast extract glucose medium at pH 7 by hemocytometer using trypan blue stain; type: functional
[17] = test system: Acanthamoeba castellanii; assay: Amoebicidal activity against Trophozoites of Acanthamoeba castellanii 4CL assessed as killing time at 20 mM in peptone yeast extract glucose medium at pH 7 by hemocytometer using trypan blue stain; type: functional
[18] = test system: Acanthamoeba polyphaga; assay: Amoebicidal activity against Trophozoites of Acanthamoeba polyphaga 5SU assessed as reduction killing time at 55 mM in phosphate buffered saline at pH 7 by hemocytometer using trypan blue stain; type: functional, organism-based
[19] = test system: Acanthamoeba polyphaga; assay: Amoebicidal activity against Trophozoites of Acanthamoeba polyphaga 5SU assessed as reduction in cell count at 20 mM in peptone yeast extract glucose medium at pH 7 after 6 hrs by hemocytometer using trypan blue stain in presence of 580 mM ammonium chloride; type: functional, organism-based
[20] = test system: Acanthamoeba hatchetti; assay: Amoebicidal activity against Trophozoites of Acanthamoeba hatchetti 11DS in phosphate buffered saline at pH 7 after 1 hr by hemocytometer using trypan blue stain; type: functional, organism-based
[21] = test system: Acanthamoeba polyphaga; assay: Amoebicidal activity against Trophozoites of Acanthamoeba polyphaga 5SU in phosphate buffered saline at pH 7 after 1 hr by hemocytometer using trypan blue stain in presence of 34 mM ammonium chloride; type: functional, organism-based
[22] = test system: Acanthamoeba hatchetti; assay: Amoebicidal activity against Trophozoites of Acanthamoeba hatchetti 11DS in peptone yeast extract glucose medium at pH 7 after 6 hrs by hemocytometer using trypan blue stain; type: functional, organism-based
[23] = test system: Acanthamoeba polyphaga; assay: Amoebicidal activity against Trophozoites of Acanthamoeba polyphaga 5SU in phosphate buffered saline at pH 7 after 6 hrs by hemocytometer using trypan blue stain in presence of 34 mM ammonium chloride; type: functional, organism-based
[24] = test system: Acanthamoeba hatchetti; assay: Amoebicidal activity against Trophozoites of Acanthamoeba hatchetti 11DS in peptone yeast extract glucose medium at pH 7 after 24 hrs by hemocytometer using trypan blue stain in presence of 68 mM ammonium chloride; type: functional, organism-based
[25] = test system: Acanthamoeba polyphaga; assay: Amoebicidal activity against Trophozoites of Acanthamoeba polyphaga 5SU in phosphate buffered saline at pH 7 after 24 hrs by hemocytometer using trypan blue stain in presence of 34 mM ammonium chloride; type: functional, organism-based
[26] = test system: Acanthamoeba polyphaga; assay: Amoebicidal activity against Trophozoites of Acanthamoeba polyphaga 5SU in peptone yeast extract glucose medium at pH 7 after 24 hrs by hemocytometer using trypan blue stain in presence of 68 mM ammonium chloride; type: functional, organism-based
[27] = test system: Acanthamoeba castellanii; assay: Amoebicidal activity against excysted trophozoites of Acanthamoeba castellanii 4CL at 55 mM in peptone yeast extract glucose medium after 24 hrs by hemocytometer using trypan blue stain; type: functional
[28] = test system: Acanthamoeba polyphaga; assay: Amoebicidal activity against excysted trophozoites of Acanthamoeba polyphaga 5SU at 55 mM in peptone yeast extract glucose medium after 24 hrs by hemocytometer using trypan blue stain; type: functional
[29] = test system: Acanthamoeba castellanii; assay: Amoebicidal activity against excysted trophozoites of Acanthamoeba castellanii 4CL at 55 mM in peptone yeast extract glucose medium after 4 days by hemocytometer using trypan blue stain; type: functional
[30] = test system: Acanthamoeba polyphaga; assay: Amoebicidal activity against excysted trophozoites of Acanthamoeba polyphaga 5SU at 55 mM in peptone yeast extract glucose medium after 4 days by hemocytometer using trypan blue stain; type: functional
[31] = test system: Acanthamoeba castellanii; assay: Amoebicidal activity against excysted trophozoites of Acanthamoeba castellanii 4CL at 55 mM in peptone yeast extract glucose medium after 6 days by hemocytometer using trypan blue stain; type: functional
[32] = test system: Acanthamoeba hatchetti; assay: Amoebicidal activity against excysted trophozoites of Acanthamoeba hatchetti 11DS at 55 mM in peptone yeast extract glucose medium after 6 days by hemocytometer using trypan blue stain; type: functional
[33] = test system: Acanthamoeba castellanii; assay: Amoebicidal activity against excysted trophozoites of Acanthamoeba castellanii 4CL at 55 mM in peptone yeast extract glucose medium after 11 days by hemocytometer using trypan blue stain; type: functional
[34] = test system: Acanthamoeba polyphaga; assay: Amoebicidal activity against Trophozoites of Acanthamoeba polyphaga 5SU assessed as complete loss of viability at 55 mM in phosphate buffered saline incubated in xenic agar medium after 14 days by hemocytometer using trypan blue stain in presence of 190 mM ammonium chloride; type: functional, organism-based

Compound: O=S(=O)(O)CCNCl
- Activity [1]: Active
- Activity [2]: inactive
- Activity [3]: 30 min
- Activity [4]: Active
- Activity [5]: 24 h
- Activity [6]: 30 min
- Activity [7]: 36 h
- Activity [8]: Active
- Activity [9]: Active
- Activity [10]: 2
- Activity [11]: 30 h
- Activity [12]: 15 h
- Activity [13]: 2
- Activity [14]: 2
- Activity [15]: 2
- Activity [16]: 36 h
- Activity [17]: 36 h
- Activity [18]: Active
- Activity [19]: Active
- EC50 [20]: 15.5 mM
- EC50 [21]: 5.31 mM
- EC90 [21]: 9.5 mM
- EC50 [22]: 9.15 mM
- EC50 [23]: 5 mM
- EC90 [23]: 9.08 mM
- EC50 [24]: 10.2 mM
- EC50 [25]: 4.96 mM
- EC90 [25]: 9.03 mM
- EC50 [26]: 10.2 mM
- Activity [27]: 0
- Activity [28]: 1000
- Activity [29]: 2000
- Activity [30]: 8000
- Activity [31]: 7200
- Activity [32]: 210000
- Activity [33]: 100000
- Activity [34]: inactive
